Assay results as given in patent US9603928B2, “Medicinal composition for promoting synthesis of protoporphyrin IX” (SBI Pharmaceuticals Co., Ltd., priority 2013, dated 2017).

Tests used:
Type in all cases: cell-based
[1] = tested on: Multi-drug resistant Pseudomonas aeruginosa (MDRP: BAA-2110); assay: Number of MDRP bacteria after ALA + chelating agent other than EDTA with or without LED irradiation (PDT); settings: Irradiation No, average values
Protocol: Multi-drug resistant Pseudomonas aeruginosa (MDRP: BAA-2110) was cultured in tryptic soy broth medium (TBS: from DIFCO) for 24 hours at 37° C. Next, the TBS medium comprising MDRP was dispensed in a 12-well dish at 1 ml per well (1×10^4−2×10^5 CFU/mL). ALA at a final concentration of 1 mg/ml and a chelating agent other than EDTA (2.5 mg/mL of citric acid, 2.5 mg/mL of malic acid, 1 mg/mL of diethylenetriaminepentaacetic acid (DTPA), 1 mg/mL of triethylenetetramine-N,N,N′,N″,N′″,N″′-hexaacetic acid, 1 mg/mL of N-(2-hydroxyethyl) iminodiacetic acid, and 1 mg/mL of deferoxamine mesylate, each at final concentration) were added to each dish. For the control group, only ALA at a final concentration of 1 mg/ml was added to 1 ml of the TBS medium comprising MDRP. Next, these were cultured for 5 hours, and the number of bacteria in each well was counted. The PDT group was cultured for 5 hours, and then irradiated with LED (410 nm) at 50 J/cm^2, after which the number of bacteria was counted, and further the number of bacteria at 19 hours after irradiation was also counted.

[2] = tested on: Multi-drug resistant Pseudomonas aeruginosa (MDRP: ATCC BAA-2110); assay: Number of MDRP bacteria after ALA + EDTA with or without PDT (LED 410 nm); settings: no PDT, 18 hours of culture, ALA 1 mg/ml, EDTA 400 mg/ml where added, start 1×10^9 CFU/ml
Protocol: Multi-drug resistant Pseudomonas aeruginosa (MDRP: ATCC BAA-2110) was cultured for 24 hours at 37° C. with tryptic soy broth medium (TBS: from DIFCO). Then, the TBS medium comprising MDRP at 1×10^9 CFU/ml was dispensed in a 12-well plate at 1 ml per well, and ALA was added to a final concentration of 1 mg/ml and EDTA was added to a final concentration of 400 mg/ml. These were divided into the group subjected to PDT (PDT group) and the group not subjected to PDT (non-PDT group) (each n=1). For the control group, only ALA at a final concentration of 1 mg/ml was added to 1 ml of the TBS medium comprising MDRP at 1×10^9 CFU/ml, and PDT was not carried out. The control group and the non-PDT group were cultured for 18 hours, and the number of bacteria in each well was counted. The PDT group was cultured for 18 hours, irradiated with LED (410 nm) at 50 J/cm^2, and then the number of bacteria was counted.

[3] = tested on: Multi-drug resistant Pseudomonas aeruginosa (MDRP: ATCC BAA-2110); assay: HPLC measurement of coproporphyrinogen III (CPIII) and protoporphyrin IX (PpIX) in MDRP cultured with ALA / ALA + EDTA; settings: 4 hours after start of culture, ALA 0.5 mg/ml, EDTA 400 mg/ml where added
Protocol: Multi-drug resistant Pseudomonas aeruginosa (MDRP: ATCC BAA-2110) was placed in tryptic soy broth medium (TBS: from DIFCO), and cultured at 37° C. for 24 hours. With an absorptiometer, the TBS medium comprising the cultured MDRP was adjusted to 1×10^9 CFU (Colony forming unit)/ml. In a 12-well plate, the following solutions (1)-(3) were each prepared and cultured. (1): TBS medium comprising MDRP adjusted to 1×10^9 CFU/ml, (2): a solution of (1) and ALA added to a final concentration of 0.5 mg/ml, and (3): a solution of (1) and ALA added to a final concentration of 0.5 mg/ml and EDTA added to a final concentration of 400 mg/ml. The solutions were collected 4 hours after the start of culture, and suspended in 0.25 ml of PBS per 1 g of the pelleted bacteria. To 0.2 ml of the suspension, 0.01 ml of 50% acetic acid and 0.9 ml of DMF/IPA (100:1) were added, vortexed, and separated by centrifugation (14, 000 rpm, 5 min, 4° C.). The concentrations of coproporphyrinogen III (CPIII) and protoporphyrin IX (PpIX) in the supernatant after centrifugal separation were measured with HPLC.

[4] = supernatant of bacterial extract, HPLC

## NCC(=O)CCC(=O)O [ALA, 5-aminolevulinic acid]
[1]; ALA 1 mg/ml
  5 hours after addition of ALA + chelating agent (CFU/mL): 3.6 × 10^5 CFU/mL
  19 hours after irradiation (CFU/mL): 1.4 × 10^9 CFU/mL
[1]; starting count
  At the time of culture (CFU/mL): 5.7 × 10^4 CFU/mL
[2]; listed as Control
  Bacterial count (CFU/ml): 4.2 × 10^9 CFU/ml
[2]; listed as control
  Bacterial count (CFU/ml): 4.2×10^9 CFU/ml
[3]
  proportion of PpIX against CPIII: approximately 5.5%
[3]; [4]
  CPIII: 889.6 nM
  PpIX: 49.0 nM
